Data from patent US9340577B2, “HLA binding motifs and peptides and their uses” (priority 1992, dated 2016).
No end group written: not given here.

Experiments:
Assay in all cases: biochemical
Assay type in all cases: binding
[1] = molecular target: A*3002 (Homo sapiens, UniProt P04439, D101N/D140H/D185E/E176R/F33S/G80R/H175R/K168Q/Q94H/R138E/R41S/V100E)
[2] = molecular target: HLA-A1 (A*0101) (Homo sapiens, UniProt P04439, A114D/A174V/A182V/D101N/D185E/E176A/E190D/L180R/Q94H/R68K/S129P/T187R/V100A/V91M/W191G)
[3] = molecular target: A*2601 (Homo sapiens, UniProt P04439, A114D/A173T/A270S/D101N/D185E/E277Q/E87N/F33Y/G231S/I121R/I218V/K168Q/L180W/L300P/L318F/P208A/P217A/Q86R/Q94H/R138Q/S129P/T187R/T323A/T345S/V100A/V358M)
[4] = molecular target: A*2902 (Homo sapiens, UniProt P04439, A270S/D101N/D185E/E176V/E277Q/E87Q/F33T/G231S/H175R/I121M/I218V/I322F/K168Q/L300P/L318F/M331R/P208A/P217A/Q86L/T323A/T345S/V100A/V358M)
[5] = molecular target: A31 (A*3101) (Homo sapiens, UniProt P04439, A270S/D185E/E176V/E277Q/F33T/G231S/G80R/H175R/I121M/I218V/I322F/K168Q/L300P/L318F/M331R/P217A/Q94H/R138Q/T323A/T345S/T97I/V358M)
[6] = molecular target: A*6801 (Homo sapiens, UniProt P04439, A269V/D185E/E176V/E277Q/E87N/F33Y/G231S/I121M/I166T/I218V/L180W/L300P/L318F/N151K/P208A/P217A/Q86R/R169H/T345S)
[7] = molecular target: A*3301 (Homo sapiens, UniProt P04439, A270S/D185E/E176V/E277Q/E87N/F33T/G231S/H175R/I121M/I218V/I322F/K168Q/K210R/L300P/L318F/M331R/P217A/Q86R/Q94H/R138Q/T323A/T345S/T97I/V358M/Y195H)
[8] = molecular target: HLA-A3.2 (A*0301) (Homo sapiens, UniProt P04439)
[9] = molecular target: HLA-A11 (A*1101) (Homo sapiens, UniProt P04439, A114D/D185E/E176A/F33Y/L180Q/S129P/T187R)

Chain of A*3002 (P04439 whole entry, looked up, the tested form may be a part, stated change not applied): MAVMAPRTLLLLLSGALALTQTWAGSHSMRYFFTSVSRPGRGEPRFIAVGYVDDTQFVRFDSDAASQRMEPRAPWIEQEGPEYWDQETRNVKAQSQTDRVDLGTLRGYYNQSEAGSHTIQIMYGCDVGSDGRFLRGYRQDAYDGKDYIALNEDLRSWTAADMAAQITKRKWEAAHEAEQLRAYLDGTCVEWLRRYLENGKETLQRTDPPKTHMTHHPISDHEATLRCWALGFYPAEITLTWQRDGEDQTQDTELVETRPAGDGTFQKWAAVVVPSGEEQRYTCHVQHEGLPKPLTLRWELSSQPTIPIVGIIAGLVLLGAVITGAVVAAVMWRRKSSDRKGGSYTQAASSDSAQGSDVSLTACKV

Row | Sequence | IC50 [1] [nM] | IC50 [2] [nM] | IC50 [3] [nM] | IC50 [4] [nM] | IC50 [5] [nM] | IC50 [6] [nM] | IC50 [7] [nM] | IC50 [8] [nM] | IC50 [9] [nM]
1 | ETWETWWTDY [Peptide 9015.0169] | 8650 | 955 | 2.3 | 11800 | – | – | – | – | –
2 | FGEMVQWAY [Peptide 1580.13] | 249 | 318 | > 20000 | 81 | – | – | – | – | –
3 | GLDDQLIHLY [Peptide 9018.0024] | 56 | 11 | 1420 | 432 | – | – | – | – | –
4 | GTDCNGWFY [Peptide 1593.01] | 330 | 40 | 318 | 73 | – | – | – | – | –
5 | GYADQLIHLY [Peptide 9018.0025] | 1.2 | 109 | 4400 | 42 | – | – | – | – | –
6 | GYFPDWQNY [Peptide 1605.15] | 48 | > 20000 | > 20000 | 659 | – | – | – | – | –
7 | HMDREKHPEY [Peptide 9018.0007] | 648 | 24 | 2760 | > 20000 | – | – | – | – | –
8 | HMDRELHPEY [Peptide 9018.0005] | 3.6 | 5.1 | 6.8 | 13 | – | – | – | – | –
9 | HYARELHPEY [Peptide 9018.0035] | 104 | > 20000 | > 20000 | 928 | – | – | – | – | –
10 | ISNYTDTIY [Peptide 9015.0007] | 36 | 104 | 6100 | 141 | – | – | – | – | –
11 | ITDDSDIAY [Peptide 1580.14] | 3150 | 4.2 | 7470 | 2100 | – | – | – | – | –
12 | ITDDSEIAY [Peptide 1593.04] | 3100 | 20 | 7370 | 1440 | – | – | – | – | –
13 | KLNWASQIY [Peptide 1595.09] | 2.9 | 11300 | > 20000 | 108 | > 20000 | > 20000 | > 20000 | 63 | 950
14 | KQNPDIVIY [Peptide 1595.10] | 7.4 | > 20000 | > 20000 | > 20000 | 4550 | > 20000 | > 20000 | 3800 | –
15 | KSLVKHHMY [Peptide 9015.0034] | 7.7 | 10500 | > 20000 | 2790 | – | – | – | – | –
16 | KYCWNLLQY [Peptide 1595.08] | 47 | > 20000 | > 20000 | 235 | – | – | – | – | –
17 | LADQLIHLY [Peptide 9015.0038] | 96 | 4 | 6090 | 1330 | – | – | – | – | –
18 | LMWKFDSSL [Peptide 1605.16] | 348 | > 20000 | > 20000 | 2050 | – | – | – | – | –
19 | LSDLQDSGY [Peptide 1580.15] | 4030 | 1.7 | > 20000 | > 20000 | – | – | – | – | –

Row | Sequence | IC50 [1] [nM] | IC50 [2] [nM] | IC50 [3] [nM] | IC50 [4] [nM] | IC50 [5] [nM] | IC50 [6] [nM] | IC50 [7] [nM] | IC50 [8] [nM] | IC50 [9] [nM]
20 | LSDMVQWAY [Peptide 1593.03] | 161 | 21 | 8060 | 504 | – | – | – | – | –
21 | LSEMIQWAY [Peptide 1580.17] | 77 | 1.5 | > 20000 | 187 | – | – | – | – | –
22 | LTDDSDIAYY [Peptide 1580.12] | 293 | 6.4 | 738 | 3980 | – | – | – | – | –
23 | LTDQLIHLY [Peptide 9018.0026] | 2.6 | 0.53 | 432 | 178 | – | – | – | – | –
24 | LYDQLIHLY [Peptide 9018.0028] | 21 | 177 | 69 | 249 | – | – | – | – | –
25 | LYDQLIHMYY [Peptide 9018.0031] | 38 | 191 | 4370 | 131 | – | – | – | – | –
26 | MRDNWRSELY [Peptide 9015.0155] | 73 | > 20000 | > 20000 | 6800 | – | – | – | – | –
27 | MSMSQWIKY [Peptide 1580.05] | 1.8 | 229 | 158 | 7.7 | – | – | – | – | –
28 | NSDVKHHMY [Peptide 9018.0010] | 70 | 3.2 | 8990 | 193 | – | – | – | – | –
29 | NSLVKHHMY [Peptide 9015.0033] | 451 | 2030 | > 20000 | 326 | – | – | – | – | –
30 | NTLVKHHMY [Peptide 9018.0009] | 69 | 363 | 7370 | 45 | – | – | – | – | –
31 | NTPPLVKLWY [Peptide 9015.0170] | 9350 | 18400 | 199 | 2650 | – | – | – | – | –
32 | QTDYYGLYY [Peptide 1593.06] | 674 | 1.3 | 122 | 38 | – | – | – | – | –
33 | QTRVLAIERY [Peptide 9015.0156] | 67 | 6420 | 3310 | 4180 | – | – | – | – | –
34 | RFALNPGLL [Peptide 1605.01] | 98 | > 20000 | > 20000 | > 20000 | – | – | – | – | –
35 | RTKNPEIVIY [Peptide 9015.0164] | 12 | > 20000 | > 20000 | > 20000 | – | – | – | – | –
36 | RYSTQVDPGY [Peptide 9018.0039] | 40 | 12200 | > 20000 | > 20000 | – | – | – | – | –
37 | SFEPIPIHY [Peptide 9015.0001] | 191 | > 20000 | 953 | 9.4 | – | – | – | – | –
38 | SIDWRLRRY [Peptide 9018.0020] | 27 | 986 | 624 | 3310 | – | – | – | – | –

Row | Sequence | IC50 [1] [nM] | IC50 [2] [nM] | IC50 [3] [nM] | IC50 [4] [nM] | IC50 [5] [nM] | IC50 [6] [nM] | IC50 [7] [nM] | IC50 [8] [nM] | IC50 [9] [nM]
39 | SIDWRQRRY [Peptide 9018.0018] | 3.5 | 43 | 236 | 561 | – | – | – | – | –
40 | SIEWRLRRY [Peptide 9015.0035] | 265 | 5230 | 164 | 13100 | – | – | – | – | –
41 | SSDAALYWY [Peptide 1593.08] | 799 | 34 | > 20000 | 1970 | – | – | – | – | –
42 | STDAALYWY [Peptide 1593.02] | 68 | 2.6 | 24 | 26 | – | – | – | – | –
43 | STEWRLRRY [Peptide 9018.0019] | 6.6 | 52 | 320 | 271 | – | – | – | – | –
44 | TWETWWTDY [Peptide 9015.0019] | 6310 | > 20000 | 3300 | 137 | – | – | – | – | –
45 | VSDEWRLRRY [Peptide 9018.0016] | 47 | 62 | 4320 | 2580 | – | – | – | – | –
46 | VSDRANGWFY [Peptide 9018.0012] | 18 | 4.3 | 191 | 932 | – | – | – | – | –
47 | VSIEWRLRRY [Peptide 9015.0181] | 55 | 4630 | 363 | 2490 | – | – | – | – | –
48 | VSIEWRQRRY [Peptide 9015.0182] | 65 | 7930 | 1990 | 13900 | – | – | – | – | –
49 | VSRDAKGWFY [Peptide 9018.0014] | 3.4 | 14 | 64 | 17 | – | – | – | – | –
50 | VSRRAKGWFY [Peptide 9015.0178] | 40 | 273 | > 20000 | 11900 | – | – | – | – | –
51 | VTIEWRLRRY [Peptide 9018.0015] | 3.5 | 19 | 33 | 123 | – | – | – | – | –
52 | VTRRAKGWFY [Peptide 9018.0013] | 3.3 | 1.5 | 15 | 21 | – | – | – | – | –
53 | VWDIVYIEY [Peptide 9018.0040] | 472 | 91 | 336 | 540 | – | – | – | – | –
54 | WKSLVKHHMY [Peptide 9015.0177] | 148 | > 20000 | > 20000 | > 20000 | – | – | – | – | –
55 | YTDGPGTRY [Peptide 9018.0002] | 63 | 0.39 | 28 | 65 | – | – | – | – | –
56 | YTDGPGVRY [Peptide 9018.0003] | 45 | 2.1 | 152 | 39 | – | – | – | – | –
